The values below come from patent US10065957B2, “Beta-lactamase inhibitors” (Novartis AG, priority 2016, dated 2018).

Counter-ions that a name gives are not always drawn.

Common to all, as to format: cell-based
In test [1] the test system is E. coli ATCC 25922. Briefly: MIC by broth microdilution, BLI alone. The following applies: Escherichia coli, ATCC25922, read-out: Minimal Inhibitory Concentrations (MIC) of selected BLIs. The procedure:
(§1) MICs were determined by the broth microdilution method in accordance with Clinical and Laboratories Institute (CLSI) guidelines. In brief, fresh overnight bacterial cultures were suspended in sterile saline, and adjusted to a 0.5 McFarland turbidity standard. Bacterial suspensions were then diluted in cation adjusted Mueller-Hinton Broth (MHB II; BBL) to yield a final inoculum of approximately 5×10^5 colony-forming units (CFU)/mL. A master plate of antibiotics was prepared at a concentration equivalent to hundred-fold the highest desired final concentration in 100% dimethyl sulfoxide (DMSO). The master antibiotic plate was then diluted by serial twofold dilution with a multichannel pipette. The resulting dilution series of compounds were diluted 1:10 with sterile water or a solution of beta-lactamase inhibitor prepared at a concentration equivalent to eleven-fold the desired final concentration in deionized water leading to a 10% DMSO final concentration. A volume of 10 μL of the drug dilution series was transferred to 96-well assay plates. Assay plates were inoculated with 90 μL of bacterial suspensions and incubated at 35° C. for 20 hrs. The assay plates were read using a microtiter plate reader (Molecular Devices) at 600 nm as well as by visual observation with a reading mirror. The lowest concentration of the compound that prevented visible growth was recorded as the MIC. Performance of the assay was monitored by testing aztreonam against laboratory quality control strains in accordance with guidelines of the CLSI.
For orientation: Broth dilution looks for growth in wells or tubes with falling amounts of substance.

The test system of test [2] is K. pneumoniae ATCC 43816. Kind of test: MIC by broth microdilution, BLI alone. The following applies: Klebsiella pneumoniae, ATCC43816, read-out: Minimal Inhibitory Concentrations (MIC) of selected BLIs. The procedure: as §1
In test [3] the test system is P. aeruginosa ATCC 27853. Kind of test: MIC by broth microdilution, BLI alone. To be noted: Pseudomonas aeruginosa, ATCC27853, read-out: Minimal Inhibitory Concentrations (MIC) of selected BLIs. The procedure:
as §1

Test [4] relates to E. coli (OXA-18). Kind of test: microbe, parasite or virus in culture. The following applies: for MIC of piperacillin with beta-lactamase inhibitor: Pip + BLI at 2 μg/mL. As for the experimental part:
as §1, with “MIC.” for “MIC. Performance of the assay was monitored by testing aztreonam against laboratory quality control strains in accordance with guidelines of the CLSI.”
(§2) Synergy or potentiation of beta-lactam antibiotics through inhibition of Q-lactamases was assessed against an isogenic panel of E. coli strains, each expressing a unique beta-lactamase, and against clinical strains.
(§3) Construction of E. coli isogenic strains, NB27273-CDY0105 (OXA-18) and NB27273-CDY0048 (TEM-10). […] The gene encoding OXA-18 was then digested with XhoI and EcoRI and inserted into this vector, from which the gene for GIM-1 had been removed with XhoI and EcoRI.
(§4) These final vectors for expression of OXA-18 and TEM-10 were transformed into BW25113 pspB to generate strains NB27273-CDY0105 (expressing OXA-18) and NB27273-CDY0048 (expressing TEM-10).

Test [5] deals with E. coli (CTX-M-15). Kind of test: microbe, parasite or virus in culture. The procedure:
as §1, with “MIC.” for “MIC. Performance of the assay was monitored by testing aztreonam against laboratory quality control strains in accordance with guidelines of the CLSI.”
as §2
(§5) Strain NB27273 (BW25113 pspB::Km^r) was obtained from the Keio transposon insertion collection. The strain has the pspB gene replaced by a kanamycin resistance marker (BW25113 pspB::Km^r). This strain was cured of the transposon in pspB via FLP recombinase using published methodology. The resulting strain, BW25113 pspB, was used as a host for multicopy vectors expressing key beta-lactamases. Multicopy plasmids directing constitutive expression of beta-lactamases were established as follows: Synthetic, codon optimized genes encoding E. coli KPC-2, SHV-12 and CTX-M-15 beta-lactamases were made by DNA2.0 (Palo Alto, Calif.). Each of the synthetic fragments were designed to contain NotI and NcoI restriction sites at their termini, allowing ligation into a NotI/NcoI digested pET28a(+) derivative for protein expression. […] The codon optimized nucleotide sequences and relevant primer recognition information is shown below:
(§6) The PCR products were then digested with XhoI and EcoRI and ligated into similarly digested plasmid pAH63-pstS(BlaP). […] Therefore, expression of beta-lactamases from pAH63-pstS(BlaP) based constructs is constitutive and the signal sequence is provided to direct these proteins to the periplasm. […] These fragments were then digested with XbaI and EcoRI, and each was inserted into pBAD18-kan that had been digested with the same enzymes to generate multicopy vectors expressing KPC-2, SHV-12 and CTX-M-15, respectively. These vectors were transformed into BW25113 pspB to generate strains NB27273-CDY0033 (expressing KPC-2), NB27273-CDY0030 (expressing SHV-12), NB27273-CDY0034 (expressing CTX-M-15) and NB27273-CDY0036 (expressing AmpC). The pBAD18-kan vector also contains the TEM promoter region and signal sequence, (but lacks any intact beta-lactamase genes) and was transformed into BW25113 pspB using standard protocols to generate the control strain NB27273-CDY0026.

The test system of test [6] is E. coli (SHV-12). Briefly: microbe, parasite or virus in culture. The procedure: as §1, with “MIC.” for “MIC. Performance of the assay was monitored by testing aztreonam against laboratory quality control strains in accordance with guidelines of the CLSI.”
as §2, §5, §6

In test [7] the test system is E. coli (TEM-10). Kind of test: microbe, parasite or virus in culture. As for the experimental part:
as §1, with “MIC.” for “MIC. Performance of the assay was monitored by testing aztreonam against laboratory quality control strains in accordance with guidelines of the CLSI.”
as §2, §3
From this template DNA, three fragments were generated by PCR using the following primer pairs;
This fragment was then digested with XbaI and EcoRI and inserted into pBAD-kan which was also cut with the same enzymes.
as §4

Test [8] has as its system E. coli (AmpC). Briefly: microbe, parasite or virus in culture. As for the experimental part:
as §1, §2
The gene encoding AmpC was PCR amplified from the genome of strain P. aeruginosa PAO1 (NB52019) (GenBank ID U5R279) using primer pair E252 (gccCTCGAGggcgaggccccggcggatcgc) (SEQ ID NO: 17) and E253 (tgaGAATTCtcagcgcttcagcggcacct) (SEQ ID NO: 18).
The PCR products were then digested with XhoI and EcoRI and ligated into similarly digested plasmid pAH63-pstS(BlaP). Plasmid pAH63-pstS(BlaP) is a derivative of plasmid pAH63 (J Bacteriol: 183(21): 6384-6393) made by cloning the TEM-1 (bla) promoter and signal peptide encoding region from plasmid pBAD (J Bacteriol. 1995 July 177(14):4121-30) into plasmid pAH63. This fragment was PCR amplified from pBAD using primer pair E192 (ttcaCTGCAGtgaacgttgcgaagcaacggC) (SEQ ID NO:19) and E194 (TCGAggatcctcgagagcaaaaacaggaaggcaaaatgccg) (SEQ ID NO:20), digested with PstI and BamHI and inserted into similarly digested plasmid pAH63. Therefore, expression of beta-lactamases from pAH63-pstS(BlaP) based constructs is constitutive and the signal sequence is provided to direct these proteins to the periplasm. Plasmid pAH63 based vectors are used for insertion into the genome in single copy, however, to provide higher expression levels to allow more sensitive detection of the susceptibility of compounds to the expressed beta-lactamases, the expression inserts contained in these vectors were moved to the replicative multicopy vector pBAD-Kan (J Bacteriol. 1995 July 177(14):4121-30). To accomplish this, the inserts encompassing the beta-lactamase genes, with the associated TEM promoter and signal sequences, were PCR amplified from their corresponding vectors using primer E268 (ccgTCTAGAcggatggcctttttgcgtttc) (SEQ ID NO:21) and E202 (aatcGAATTCttactgaccattaacgcccaagc) (SEQ ID NO:22) for the KPC2 construct, E204 (aatcGAATTCttaacgctgccagtgctcaatc) (SEQ ID NO:23) for the SHV-12 construct and E203 (aatcGAATTCttacagaccgtcggtgacaatc) (SEQ ID NO:24) for the CTX-M-15 construct. These fragments were then digested with XbaI and EcoRI, and each was inserted into pBAD18-kan that had been digested with the same enzymes to generate multicopy vectors expressing KPC-2, SHV-12 and CTX-M-15, respectively. […]

In test [9] the test system is E. coli (KPC-2). Briefly: microbe, parasite or virus in culture. The following applies: E. coli (KPC-2). As for the experimental part: as §1, with “MIC.” for “MIC. Performance of the assay was monitored by testing aztreonam against laboratory quality control strains in accordance with guidelines of the CLSI.”
as §2, §5, §6

The mark [10] stands for this setting: Escherichia coli, Mero alone, read-out: MIC of meropenem.

Take `O=C1[C@@H]2[C@@H](C[C@@H]3CN2C(=O)N3OS(=O)(=O)[O-])CN1C1CC1.[Na+]` [Example 3, Sodium (4R,5aS,8aS)-7-cyclopropyl-2,8-dioxohexahydro-2H-1,4-methanopyrrolo[3,4-d][1,3]diazepin-3(4H)-yl sulfate]: the MIC in test [1], in [2] and in test [3] was > 64 µg/mL throughout. The “MIC of piperacillin with beta-lactamase inhibitor” value in test [4] was 4 µg/mL.
As for Ceftazidime, the MIC of ceftazidime in [5] (ceftazidime alone) is 16 µg/mL; in test [6] (ceftazidime alone) it was >64 µg/mL; in test [7] (ceftazidime alone), >64 µg/mL; in test [8] (ceftazidime alone) it was 4 µg/mL; in test [4] (ceftazidime alone), >64 µg/mL.
Turning to `CN1C[C@@H]2C[C@@H]3CN(C(=O)N3OS(=O)(=O)[O-])[C@@H]2C1=O.[Na+]` [Example 2, Sodium (4R,5aS,8aS)-7-methyl-2,8-dioxohexahydro-2H-1,4-methanopyrrolo[3,4-d][1,3]diazepin-3(4H)-yl sulfate], the MIC in [1], in test [2] and in test [3] was > 64 µg/mL throughout. Further, the “MIC of piperacillin with beta-lactamase inhibitor” value in test [4] was 4 µg/mL.
For the molecule `CCCN1C[C@@H]2C[C@@H]3CN(C(=O)N3OS(=O)(=O)[O-])[C@@H]2C1=O.[Na+]` [Example 6, Sodium (4R,5aS,8aS)-2,8-dioxo-7-propylhexahydro-2H-1,4-methanopyrrolo[3,4-d][1,3]diazepin-3(4H)-yl sulfate], the MIC in test [1], in [2] and in test [3] was > 64 µg/mL throughout.
With `C[C@@H](O)[C@H]1C(=O)N2C(C(=O)O)=C(S[C@@H]3CN[C@H](C(=O)N(C)C)C3)[C@H](C)[C@H]12` [Meropenem], the MIC in test [5] (setting [10]) is ≤ 0.06 µg/mL; in [9] (setting [10]) it was 1 µg/mL; in [6] (setting [10]) it was ≤ 0.06 µg/mL; in test [7] (setting [10]) it was ≤ 0.06 µg/mL; in test [8] (setting [10]) it was ≤ 0.06 µg/mL; in [4] (setting [10]) it was ≤ 0.06 µg/mL.
Take `COC[C@@H]1NC(=O)[C@@H]2[C@H]1C[C@@H]1CN2C(=O)N1OS(=O)(=O)[O-].[Na+]` [Example 8, Sodium (4R,5aS,6R,8aS)-6-(methoxymethyl)-2,8-dioxohexahydro-2H-1,4-methanopyrrolo[3,4-d][1,3]diazepin-3(4H)-yl hydrogen sulfate]: the MIC in test [1], in [2] and in test [3] was > 64 µg/mL in each case.
Take `Nc1nc(/C(=N/OC2(C(=O)O)CC2)C(=O)N[C@@H]2C(=O)N(S(=O)(=O)O)[C@@H]2CN2CCOC2=O)cs1` [Beta-Lactam 5]: the “Activity of Beta-Lactam 5” value in test [5] (Beta-Lactam 5 alone) turned out to be 0.125 µg/mL; in [9] (Beta-Lactam 5 alone), 0.25 µg/mL; in test [6] (Beta-Lactam 5 alone), 0.5 µg/mL; in test [7] (Beta-Lactam 5 alone), 2 µg/mL; in [8] (Beta-Lactam 5 alone) it was 0.25 µg/mL; in [4] (Beta-Lactam 5 alone) it was 0.5 µg/mL.
Regarding `O=C1NCC[C@@H]2C[C@@H]3CN(C(=O)N3OS(=O)(=O)[O-])[C@H]12.[Na+]` [Example 7, Sodium (4R,5aR,9aS)-2,9-dioxooctahydro-1,4-methanopyrido[3,4-d][1,3]diazepin-3(2H)-yl hydrogen sulfate], the MIC in test [1], in [2] and in [3] was > 64 µg/mL each time. Also, the “MIC of piperacillin with beta-lactamase inhibitor” value in [4] is 8 µg/mL.
As for `NCCN1C[C@@H]2C[C@@H]3CN(C(=O)N3OS(=O)(=O)O)[C@@H]2C1=O` [Example 5, (4R,5aS,8aS)-7-(2-aminoethyl)-2,8-dioxohexahydro-2H-1,4-methanopyrrolo[3,4-d][1,3]diazepin-3(4H)-yl hydrogen sulfate], the MIC in test [1], in [2] and in test [3] was > 64 µg/mL throughout.
As to `O=C1[C@@H]2[C@@H](C[C@@H]3CN2C(=O)N3OS(=O)(=O)[O-])CN1CCO.[Na+]` [Example 4, Sodium (4R,5aS,8aS)-7-(2-hydroxyethyl)-2,8-dioxohexahydro-2H-1,4-methanopyrrolo[3,4-d][1,3]diazepin-3(4H)-yl sulfate], the MIC in [1], in [2] and in [3] was > 64 µg/mL in each case.
